Data: ChEMBL document CHEMBL1135311, “N-Cycloalkanoyl-L-phenylalanine derivatives as VCAM/VLA-4 antagonists” (Bioorg Med Chem Lett, 2002)

Tests used:
Integrin alpha-4/beta-1 [1] = target: T1, Integrin alpha-4/beta-1 (Homo sapiens, UniProt P05556+P13612); test: Inhibitory binding concentration determined against VCAM/VLA-4 in ELISA; type: protein-complex assay
Integrin alpha-4/beta-1 [2] = target: T1, Integrin alpha-4/beta-1; test: Inhibitory binding concentration determined against VCAM/VLA-4 in Ramos; type: protein-complex assay
Integrin alpha-4/beta-1 [3] = target: T1, Integrin alpha-4/beta-1; test: Inhibition of Very late antigen 4/vascular cell adhesion molecule 1 interaction in ELISA; type: protein-complex assay
Integrin alpha-4/beta-1 [4] = target: T1, Integrin alpha-4/beta-1; test: Inhibition of Very late antigen 4 (VLA-4) of Ramos cell adhesion to vascular cell adhesion molecule 1 (VCAM-1); type: cell-based

T1 sequence (P05556 whole entry): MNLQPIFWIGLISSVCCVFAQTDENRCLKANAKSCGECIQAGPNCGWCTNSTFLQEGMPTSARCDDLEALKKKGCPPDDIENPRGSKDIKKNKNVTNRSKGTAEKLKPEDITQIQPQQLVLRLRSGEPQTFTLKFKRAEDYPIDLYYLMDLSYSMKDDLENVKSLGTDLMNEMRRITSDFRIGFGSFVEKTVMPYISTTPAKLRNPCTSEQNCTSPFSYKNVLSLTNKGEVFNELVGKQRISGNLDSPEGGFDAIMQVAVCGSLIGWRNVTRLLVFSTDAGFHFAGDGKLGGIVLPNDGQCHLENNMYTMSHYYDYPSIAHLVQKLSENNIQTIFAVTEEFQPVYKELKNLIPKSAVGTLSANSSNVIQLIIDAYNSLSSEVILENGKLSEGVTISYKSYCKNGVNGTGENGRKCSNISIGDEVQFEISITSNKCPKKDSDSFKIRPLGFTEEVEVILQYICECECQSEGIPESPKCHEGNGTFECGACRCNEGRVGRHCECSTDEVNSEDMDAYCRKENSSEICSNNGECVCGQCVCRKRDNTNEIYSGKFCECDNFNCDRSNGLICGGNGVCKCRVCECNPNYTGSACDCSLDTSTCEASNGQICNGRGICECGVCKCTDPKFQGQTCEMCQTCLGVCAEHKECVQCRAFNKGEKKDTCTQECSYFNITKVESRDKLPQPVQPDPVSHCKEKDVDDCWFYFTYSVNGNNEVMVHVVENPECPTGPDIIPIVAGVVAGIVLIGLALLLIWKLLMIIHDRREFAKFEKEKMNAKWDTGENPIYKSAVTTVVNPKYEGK
T1 sequence (P13612 whole entry): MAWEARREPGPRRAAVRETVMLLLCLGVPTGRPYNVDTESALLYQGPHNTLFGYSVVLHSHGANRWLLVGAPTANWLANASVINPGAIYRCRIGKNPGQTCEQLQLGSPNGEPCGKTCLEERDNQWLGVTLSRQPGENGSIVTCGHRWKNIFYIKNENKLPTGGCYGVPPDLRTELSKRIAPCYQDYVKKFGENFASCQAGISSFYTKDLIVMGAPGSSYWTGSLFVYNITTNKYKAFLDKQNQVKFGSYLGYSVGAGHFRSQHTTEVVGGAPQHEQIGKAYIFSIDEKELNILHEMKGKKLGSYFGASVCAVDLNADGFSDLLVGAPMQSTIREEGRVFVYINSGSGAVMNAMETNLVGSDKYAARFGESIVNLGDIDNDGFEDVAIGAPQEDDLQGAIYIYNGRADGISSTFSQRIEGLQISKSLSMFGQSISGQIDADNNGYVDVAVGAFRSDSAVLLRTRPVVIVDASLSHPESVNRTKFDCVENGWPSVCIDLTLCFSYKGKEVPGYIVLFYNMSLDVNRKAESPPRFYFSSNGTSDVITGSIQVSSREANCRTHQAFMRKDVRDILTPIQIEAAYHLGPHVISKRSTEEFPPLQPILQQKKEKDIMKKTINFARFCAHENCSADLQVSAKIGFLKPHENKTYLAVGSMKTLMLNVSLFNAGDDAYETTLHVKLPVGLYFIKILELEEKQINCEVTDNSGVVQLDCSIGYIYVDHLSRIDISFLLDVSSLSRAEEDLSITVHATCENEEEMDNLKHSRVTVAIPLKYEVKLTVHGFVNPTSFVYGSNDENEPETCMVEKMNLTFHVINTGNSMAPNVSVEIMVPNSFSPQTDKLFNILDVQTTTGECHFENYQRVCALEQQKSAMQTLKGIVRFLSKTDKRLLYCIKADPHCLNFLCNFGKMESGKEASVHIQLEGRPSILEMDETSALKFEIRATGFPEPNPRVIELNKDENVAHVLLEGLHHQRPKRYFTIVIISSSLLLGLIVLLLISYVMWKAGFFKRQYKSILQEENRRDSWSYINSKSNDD

| SMILES | IC50 (Integrin alpha-4/beta-1 [1]) | IC50 (Integrin alpha-4/beta-1 [2]) | IC50 (Integrin alpha-4/beta-1 [4]) | IC50 (Integrin alpha-4/beta-1 [3]) |
| --- | --- | --- | --- | --- |
| O=C(Nc1ccc(C[C@H](NC(=O)C2(c3ccccc3)CCCC2)C(=O)O)cc1)c1c(Cl)cccc1Cl | 1.7 nM |  |  |  |
| NC(=O)NCCC1(C(=O)N[C@@H](Cc2ccc(NC(=O)c3c(Cl)cccc3Cl)cc2)C(=O)O)CCCC1 | 0.46 nM |  |  |  |
| O=C(Nc1ccc(C[C@H](NC(=O)C2(Cc3ccccc3Cl)CCCC2)C(=O)O)cc1)c1c(Cl)cccc1Cl |  | 350 nM |  |  |
| Cn1nnnc1-c1ccc(CC2(C(=O)N[C@@H](Cc3ccc(NC(=O)c4c(Cl)cccc4Cl)cc3)C(=O)O)CCCC2)cc1 |  | 19 nM |  |  |
| [N-]=[N+]=NCCC1(C(=O)N[C@@H](Cc2ccc(NC(=O)c3c(Cl)cccc3Cl)cc2)C(=O)O)CCCC1 | 0.53 nM |  |  |  |
| N#CCCCCC1(C(=O)N[C@@H](Cc2ccc(NC(=O)c3c(Cl)cccc3Cl)cc2)C(=O)O)CCCC1 | 0.52 nM |  |  |  |
| C=CCCC1(C(=O)N[C@@H](Cc2ccc(NC(=O)c3c(Cl)cccc3Cl)cc2)C(=O)O)CCCC1 |  | 64 nM |  |  |
| O=C(Nc1ccc(C[C@H](NC(=O)C2(Cc3ccccc3)CCCC2)C(=O)O)cc1)c1c(Cl)cccc1Cl | 6.6 nM | 340 nM |  |  |
| CSCCCCC1(C(=O)N[C@@H](Cc2ccc(NC(=O)c3c(Cl)cccc3Cl)cc2)C(=O)O)CCCC1 |  |  |  | 1.1 nM |
| Cn1nnnc1-c1cccc(CC2(C(=O)N[C@@H](Cc3ccc(NC(=O)c4c(Cl)cccc4Cl)cc3)C(=O)O)CCCC2)c1 | 0.4 nM | 100 nM |  |  |
| CS(=O)(=O)CCCCC1(C(=O)N[C@@H](Cc2ccc(NC(=O)c3c(Cl)cccc3Cl)cc2)C(=O)O)CCC1 |  |  | 6 nM | 0.1 nM |
| COc1ccc(CC2(C(=O)N[C@@H](Cc3ccc(NC(=O)c4c(Cl)cccc4Cl)cc3)C(=O)O)CCCC2)cc1 | 0.6 nM | 37 nM |  |  |
| Cn1nnnc1-c1ccc(CC2(C(=O)N[C@@H](Cc3ccc(NC(=O)c4c(Cl)cccc4Cl)cc3)C(=O)O)CCCCC2)cc1 | 1.3 nM | 61 nM |  |  |
| O=C(NCCC1(C(=O)N[C@@H](Cc2ccc(NC(=O)c3c(Cl)cccc3Cl)cc2)C(=O)O)CCCC1)Nc1ccccc1 | 5.8 nM | 914 nM |  |  |
| C[S+]([O-])CCC1(C(=O)N[C@@H](Cc2ccc(NC(=O)c3c(Cl)cccc3Cl)cc2)C(=O)O)CCCC1 (some centres undefined) |  |  |  | 0.21 nM |
| N#CCC1(C(=O)N[C@@H](Cc2ccc(NC(=O)c3c(Cl)cccc3Cl)cc2)C(=O)O)CCCC1 | 1.1 nM |  |  |  |
| COc1cccc(CC2(C(=O)N[C@@H](Cc3ccc(NC(=O)c4c(Cl)cccc4Cl)cc3)C(=O)O)CCCC2)c1 |  | 170 nM |  |  |
| COCCCCC1(C(=O)N[C@@H](Cc2ccc(NC(=O)c3c(Cl)cccc3Cl)cc2)C(=O)O)CCCC1 |  | 29 nM |  |  |
| CS(=O)(=O)CCC1(C(=O)N[C@@H](Cc2ccc(NC(=O)c3c(Cl)cccc3Cl)cc2)C(=O)O)CCCC1 |  |  |  | 0.8 nM |
| COc1ccc(CC2(C(=O)N[C@@H](Cc3ccc(NC(=O)c4c(Cl)cccc4Cl)cc3)C(=O)O)CCCC2)cc1OC | 0.8 nM | 95 nM |  |  |

The next lines start with results.

| IC50 (Integrin alpha-4/beta-1 [1]) | IC50 (Integrin alpha-4/beta-1 [2]) | IC50 (Integrin alpha-4/beta-1 [4]) | SMILES | IC50 (Integrin alpha-4/beta-1 [3]) |
| --- | --- | --- | --- | --- |
|  | 12 nM |  | COCCC1(C(=O)N[C@@H](Cc2ccc(NC(=O)c3c(Cl)cccc3Cl)cc2)C(=O)O)CCCC1 |  |
| 0.1 nM | 11 nM |  | CNC(=O)NCCC1(C(=O)N[C@@H](Cc2ccc(NC(=O)c3c(Cl)cccc3Cl)cc2)C(=O)O)CCCC1 |  |
| 3.4 nM | 89 nM |  | CN(C)CCC1(C(=O)N[C@@H](Cc2ccc(NC(=O)c3c(Cl)cccc3Cl)cc2)C(=O)O)CCCC1 |  |
| 1 nM | 134 nM |  | COCC1(C(=O)N[C@@H](Cc2ccc(NC(=O)c3c(Cl)cccc3Cl)cc2)C(=O)O)CCCC1 |  |
| 7.8 nM | 350 nM |  | CC(=O)CCCC1(C(=O)N[C@@H](Cc2ccc(NC(=O)c3c(Cl)cccc3Cl)cc2)C(=O)O)CCCC1 |  |
|  |  | 528 nM | CS(=O)(=O)CCCC1(C(=O)N[C@@H](Cc2ccc(NC(=O)c3c(Cl)cccc3Cl)cc2)C(=O)O)CCCC1 | 1.8 nM |
|  |  | 8 nM | CS(=O)(=O)CCCCC1(C(=O)N[C@@H](Cc2ccc(NC(=O)c3c(Cl)cccc3Cl)cc2)C(=O)O)CCCC1 | 0.15 nM |
| 0.61 nM | 17 nM |  | COCCC1(C(=O)N[C@@H](Cc2ccc(NC(=O)c3c(Cl)cccc3Cl)cc2)C(=O)O)CCC1 |  |
| 1.64 nM | 142 nM |  | [N-]=[N+]=NCCCCC1(C(=O)N[C@@H](Cc2ccc(NC(=O)c3c(Cl)cccc3Cl)cc2)C(=O)O)CCCC1 |  |
